From patent US9549935B2, “Methods and compositions for treating migraines using noribogaine” (DemeRx, Inc., priority 2014, dated 2017)

Experiments:
[1] = Treatment emergent adverse events in opioid-dependent participants (Phase IB)
[2] = Pupillary miosis assessed by pupillometry in healthy volunteers; type: in vivo, human; settings: 3-60 mg single oral doses vs placebo, up to 216 hours, p>0.9
Procedure: Pulse oximetry and capnography data were collected continuously using a GE Carescape B650 monitoring system from 2 hours prior to dosing and until six hours after dosing, and thereafter at 12, 24, 48 and 72 hours post-dosing. Additional oximetry data were collected at 120, 168 and 216 hours. Pupillary miosis was assessed by pupillometry. Dark-adapted pupil diameter was measured in triplicate using a Neuroptics PLR-200 pupillometer under standardized light intensity (<5 lux) pre-dose, and at 2, 4, 6, 12, 24, 48, 72, 96, 120, 168 and 216 hours post-dosing.
Summary statistics (means, standard deviations, and coefficients of variation) were determined for each dose group for safety laboratory test data, ECG and pharmacokinetic parameters, and pharmacodynamic variables. Categorical variables were analysed using counts and percentages. Dose-proportionality of AUC and Cmax was assessed using linear regression. The effect of dose on pharmacodynamic parameter values over time was assessed using two-factor analysis of variance (ANOVA). Pairwise comparisons (with Tukey-Kramer adjustment) between each dose group to the placebo were conducted at each time point using the least squares estimates obtained from the ANOVA, using SAS Proc Mixed (SAS ver 6.0).

[3] = Cold pressor test (analgesic effect) in healthy volunteers; type: in vivo, human; settings: 3-60 mg single oral doses vs placebo, 1° C. water
Procedure: Analgesic effect was assessed based on duration of hand immersion in ice water and on visual analog scale (VAS) pain scores upon hand removal from the water bath.
Safety and tolerability of noribogaine were tested in the group of volunteers from Example 1. Cold pressor testing was conducted in 1° C. water according to the method of Mitchell et al. (J Pain 5:233-237, 2004) pre-dose, 6, 24, 48, 72 and 216 hours post-dosing. Safety evaluations included clinical monitoring, recording of adverse events (AEs), safety laboratory tests, vital signs, ECG telemetry from −2 h to 6 h after dosing, and 12-lead electrocardiograms (ECGs) up to 216 hours post-dosing.

CC[C@H]1CC2C[C@H]3c4[nH]c5ccc(O)cc5c4CCN(C2)C13 [Noribogaine, noribogaine]
attenuated: frequency of headaches ([1]; 120 mg and 180 mg dose groups)
no evidence of pupillary constriction: pupillary constriction (dark-adapted pupil diameter) [2]
no hallucinatory effects: hallucinatory effects ([1]; 60-180 mg, opioid-dependent participants)
frequent: frequency of headaches ([1]; 60 mg treatment group)
no analgesic effect: analgesic effect in the cold pressor test (duration of hand immersion, VAS pain scores) [3]
0: Treatment Emergent AE: Catheter Site Infection ([1]; single 60 mg dose, N = 6) | Treatment Emergent AE: Catheter Site Pain ([1]; single 60 mg dose, N = 6) | Treatment Emergent AE: Catheter Site Related Reaction ([1]; single 60 mg dose, N = 6) | Treatment Emergent AE: Cellulitis ([1]; single 60 mg dose, N = 6) | Treatment Emergent AE: Diarrhoea ([1]; single 60 mg dose, N = 6) | Treatment Emergent AE: Dry Mouth ([1]; single 60 mg dose, N = 6) | Treatment Emergent AE: Ear and Labyrinth Disorders ([1]; single 60 mg dose, N = 6) | Treatment Emergent AE: Epistaxis ([1]; single 60 mg dose, N = 6) | Treatment Emergent AE: Euphoric Mood ([1]; single 60 mg dose, N = 6) | Treatment Emergent AE: General Disorders and Administration Site Conditions ([1]; single 60 mg dose, N = 6) | Treatment Emergent AE: Hyperaesthesia ([1]; single 60 mg dose, N = 6) | Treatment Emergent AE: Infections and Infestations ([1]; single 60 mg dose, N = 6) | Treatment Emergent AE: Limb Discomfort ([1]; single 60 mg dose, N = 6) | Treatment Emergent AE: Malaise ([1]; single 60 mg dose, N = 6) | Treatment Emergent AE: Nausea ([1]; single 60 mg dose, N = 6) | Treatment Emergent AE: Oropharyngeal Pain ([1]; single 60 mg dose, N = 6) | Treatment Emergent AE: Pseudoparalysis ([1]; single 60 mg dose, N = 6) | Treatment Emergent AE: Respiratory, Thoracic and Mediastinal Disorders ([1]; single 60 mg dose, N = 6) | Treatment Emergent AE: Rhinorrhoea ([1]; single 60 mg dose, N = 6) | Treatment Emergent AE: Skin Discomfort ([1]; single 60 mg dose, N = 6) | Treatment Emergent AE: Skin Irritation ([1]; single 60 mg dose, N = 6) | Treatment Emergent AE: Skin and Subcutaneous Tissue Disorders ([1]; single 60 mg dose, N = 6) | Treatment Emergent AE: Somnoience ([1]; single 60 mg dose, N = 6) | Treatment Emergent AE: Tinnitus ([1]; single 60 mg dose, N = 6) | Treatment Emergent AE: Tremor ([1]; single 60 mg dose, N = 6) | Treatment Emergent AE: Urinary Tract Infection ([1]; single 60 mg dose, N = 6) | Treatment Emergent AE: Vomiting ([1]; single 60 mg dose, N = 6) | Treatment Emergent AE: Back Pain ([1]; single 120 mg dose, N = 6) | Treatment Emergent AE: Catheter Site Infection ([1]; single 120 mg dose, N = 6) | Treatment Emergent AE: Catheter Site Related Reaction ([1]; single 120 mg dose, N = 6) | Treatment Emergent AE: Depressed Mood ([1]; single 120 mg dose, N = 6) | Treatment Emergent AE: Dry Eye ([1]; single 120 mg dose, N = 6) | Treatment Emergent AE: Dyspepsia ([1]; single 120 mg dose, N = 6) | Treatment Emergent AE: Euphoric Mood ([1]; single 120 mg dose, N = 6) | Treatment Emergent AE: Limb Discomfort ([1]; single 120 mg dose, N = 6) | Treatment Emergent AE: Malaise ([1]; single 120 mg dose, N = 6) | Treatment Emergent AE: Musculoskeletal and Connective Tissue Disorders ([1]; single 120 mg dose, N = 6) | Treatment Emergent AE: Psychiatric Disorders ([1]; single 120 mg dose, N = 6) | Treatment Emergent AE: Somnoience ([1]; single 120 mg dose, N = 6) | Treatment Emergent AE: Urinary Tract Infection ([1]; single 120 mg dose, N = 6) | Treatment Emergent AE: Catheter Site Infection ([1]; single 180 mg dose, N = 6) | Treatment Emergent AE: Catheter Site Pain ([1]; single 180 mg dose, N = 6) | Treatment Emergent AE: Depressed Mood ([1]; single 180 mg dose, N = 6) | Treatment Emergent AE: Diarrhoea ([1]; single 180 mg dose, N = 6) | Treatment Emergent AE: Dry Eye ([1]; single 180 mg dose, N = 6) | Treatment Emergent AE: Dyspepsia ([1]; single 180 mg dose, N = 6) | Treatment Emergent AE: Ear and Labyrinth Disorders ([1]; single 180 mg dose, N = 6) | Treatment Emergent AE: Epistaxis ([1]; single 180 mg dose, N = 6) | Treatment Emergent AE: Euphoric Mood ([1]; single 180 mg dose, N = 6) | Treatment Emergent AE: Hyperaesthesia ([1]; single 180 mg dose, N = 6) | Treatment Emergent AE: Malaise ([1]; single 180 mg dose, N = 6) | Treatment Emergent AE: Oropharyngeal Pain ([1]; single 180 mg dose, N = 6) | Treatment Emergent AE: Pseudoparalysis ([1]; single 180 mg dose, N = 6) | Treatment Emergent AE: Psychiatric Disorders ([1]; single 180 mg dose, N = 6) | Treatment Emergent AE: Respiratory, Thoracic and Mediastinal Disorders ([1]; single 180 mg dose, N = 6) | Treatment Emergent AE: Rhinorrhoea ([1]; single 180 mg dose, N = 6) | Treatment Emergent AE: Skin Discomfort ([1]; single 180 mg dose, N = 6) | Treatment Emergent AE: Skin Irritation ([1]; single 180 mg dose, N = 6) | Treatment Emergent AE: Skin and Subcutaneous Tissue Disorders ([1]; single 180 mg dose, N = 6) | Treatment Emergent AE: Somnoience ([1]; single 180 mg dose, N = 6) | Treatment Emergent AE: Tinnitus ([1]; single 180 mg dose, N = 6) | Treatment Emergent AE: Tremor ([1]; single 180 mg dose, N = 6)
